Experimental data reported in patent publication US20220040133A1.

Key:
Human H460 NSCLC cells = experiment: Oral efficacy in human H460 NSCLC xenografts in mice; type: in vivo; conditions: H460 xenograft, CD1-Nu/Nu mice; oral gavage 100 mg/kg on day 8, 15, 22, 29; vs 5% dextrose or untreated; FIG. 1
Procedure: Human H460 NSCLC cells were obtained from American Type Cell Culture (ATCC) (catalog no. HTB-177, Manassas, Va.). These cells tested negative for viral contamination using the Mouse Antibody Production (MAP) test, performed by Charles River Labs Molecular Division, upon the receipt of the tumor cells from ATCC. The tumor cells were maintained at 37° C. in a humidified 5% CO2 atmosphere in T225 tissue culture flasks containing 50 mL of Roswell Park Memorial Institute (RPMI)-1640 solution with 10% Fetal Bovine Serum (FBS) and 2 mM L-glutamine. Cells were split at a ratio of 1:10 every 2-3 days by trypsinization and resuspended in fresh medium in a new flask. Cells were harvested for experiments in the same way at 70-90% confluency.
CD1-Nu/Nu female mice, ˜4-6 weeks old were obtained from Charles River Laboratories. Mice were housed 5 to a cage in a micro-isolator room in the Department of Animal Laboratory Research of New York State University (SUNY) at Stony Brook. Light-dark cycles were 12 h each daily, with light from 7 a.m. to 7 p.m. […]
An acclimation period of 7 days was allowed between the arrival of the animal at the study site before tumor inoculation and experimentation. […] Tumor dimensions (length and width) were measured daily before, during and after treatment (using Vernier calipers) and the tumor volume was calculated using the prolate ellipsoid formula: (length×width^2)/2. […]

[1] = mouse, in vivo
[2] = test system: myelodysplastic syndrome (MDS), acute myeloid leukemia (AML), Burkitt lymphoma, and cutaneous T-cell lymphoma (CTCL); conditions: IV, days 1 and 4 of weeks 1, 2, 3 of a 4 week cycle, 840 mg/m^2 to 2940 mg/m^2 daily; cited from earlier work
[3] = test system: relapsed or refractory T-cell lymphoma; conditions: IV, days 1-4, 8, 11, 15, 18 of a 4 week cycle, 2000 mg/m^2 to 2750 mg/m^2, combined with bendamustine 90 mg/m^2; cited from earlier work
[4] = after IV dosing; Pardee et al. 2014; cited from earlier work
MFL2 cells = experiment: Survival of C57Bl/6 mice with MFL2 syngeneic AML tumors; type: in vivo
Procedure: C57Bl/6 mice were injected into their tail veins with 1 million MFL2 cells (Pardee, T. S. et al., Experimental Hematology, 2011, 39, 473-485) on Day 0 and beginning on Day 7, upon confirmation of engraftment by bioluminescence imaging, were treated by gavage with CPI-613 (300 mg/kg daily except weekends of a 50 mg/mL solution in 0.05 N NaOH in 5% dextrose, adjusted to pH 7.5-8 with 4% glacial acetic acid; 1 animal for the chloroquine experiment), intraperitoneally (IP) with chloroquine (200 μL (ca. 100 mg/kg) daily except weekends of a 10 mg/mL solution in PBS; Chlr; 3 animals), orally with metformin (1 mg/mL in the drinking water with ad lib access), or with a combination of CPI-613 (300 mg/kg daily gavage as above) and either chloroquine (200 μL daily IP as above; 4 animals) or metformin (1 mg/mL ad lib in drinking water as above) and followed for survival. Control animals (1 animal in chloroquine experiment) received both oral and IP vehicles. P value was determined by log rank test.

[5] = test system: BxPC3 pancreatic cancer cells; experiment: Oral efficacy in human BxPC3 pancreatic cancer xenografts in mice; type: in vivo; set-up: dose or concentration left out as unconfirmed; conditions: BxPC3 xenograft, CD-1 nude mice; oral dose for 4 weeks; FIG. 2
Procedure: CD1-Nu/Nu female mice, ˜4-6 weeks old were obtained from Charles River Laboratories. Mice were housed 5 to a cage in a micro-isolator room in the Department of Animal Laboratory Research of New York State University (SUNY) at Stony Brook. Light-dark cycles were 12 h each daily, with light from 7 a.m. to 7 p.m. Food (Purina Rodent Chow) and water (distilled sterile-filtered water, pH 7) were provided ad libitum. Protocols and procedures were according to the rules of and approved by the SUNY Institutional Animal Care and Use Committee (IACUC).
An acclimation period of 7 days was allowed between the arrival of the animal at the study site before tumor inoculation and experimentation. Mice were inoculated subcutaneously (SC) in the right flank with 2×10^6 human H460 NSCLC or BxPC3 pancreatic cancer cells that were suspended in 0.1 mL of Dulbeco's Phosphate Buffered Salt (PBS) solution using a 1 cc syringe with a 27⅝ gauge needle. Tumor dimensions (length and width) were measured daily before, during and after treatment (using Vernier calipers) and the tumor volume was calculated using the prolate ellipsoid formula: (length×width^2)/2. Treatment with test or control articles began 8 days post tumor cell implantation when the tumor was approximately 300 mm^3.
A similar study was conducted in CD-1 nude mice (n=9) inoculated with 2×10^6 BxPC-3 cells. […]

[6] = test system: metastatic pancreatic adenocarcinoma; conditions: combined with modified FOLFIRINOX, cited from earlier work
Baf3-p210 cells = experiment: Survival of Balb/c mice with Baf3-p210 syngeneic ALL tumors; type: in vivo; conditions: CPI-613 250 mg/kg gavage once daily combined with doxorubicin 3 mg/kg IP for three days; compared to doxorubicin alone; FIG. 4
Procedure: Balb/c mice were injected into their tail veins with 1 million Baf3-p210 cells on Day 0 and beginning on Day 3, upon confirmation of engraftment by bioluminescence imaging, were treated with saline (control), doxorubicin (3 mg/kg IP in 200 μL PBS), or doxorubicin (3 mg/kg IP in 200 μL PBS) plus CPI-613 (250 mg/kg gavage of a 25 mg/mL solution of CPI-613 in 0.05 N NaOH in 5% dextrose, adjusted to pH 7.5-8 with 4% glacial acetic acid). and followed for survival. Doxorubicin was administered once daily for three consecutive days, and CPI-613 was administered once daily until death. P value was determined by log rank test.

O=C(O)CCCCC(CCSCc1ccccc1)SCc1ccccc1 (stereo not drawn)
tumor growth (tumor volume) (Human H460 NSCLC cells): grew much more slowly
oral bioavailability (in words) [1]: orally bioavailable
efficacy in patients [2]: showed efficacy
efficacy in patients [3]: showed efficacy
half-life [4]: 1 to 2 h
survival (MFL2 cells; CPI-613 300 mg/kg gavage combined with chloroquine ca. 100 mg/kg IP daily except weekends, FIG. 3A): significantly prolongs survival
survival (MFL2 cells; CPI-613 300 mg/kg gavage combined with metformin 1 mg/mL in drinking water, FIG. 3B): significantly prolongs survival
survival (MFL2 cells; CPI-613 300 mg/kg gavage daily except weekends from Day 7, FIGS. 3A, 3B): significantly prolongs survival
tumor growth (tumor volume) [5]: especially pronounced
objective response ([6]; IV 500 mg/m^2 on days 1 and 3 of a two week cycle): 11 of 18
maximum tolerated dose ([6]; IV, days 1 and 3 of a two week cycle): 500 mg/m^2
survival (Baf3-p210 cells): significantly prolongs survival
